In patent publication US8802597B2, “Herbicidal pyrimidines” (E I du Pont de Nemours and Company, priority 2003, dated 2014):
Where two headings read alike, the source gives them in different places.

Key:
Format in all cases: in vivo
[1] = system: crabgrass (Digitaria sanguinalis); experiment: Test C pre/postemergence; details: for pest or weed control at 62 g/ha / pest or weed control at 125 g/ha / pest or weed control at 250 g/ha / pest or weed control at 500 g/ha: Digitaria sanguinalis
Method in brief: (§1)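 Rating scale 0–100: 0 means no effect, 100 complete control; taken visually 12 to 14 days post-treatment versus controls. Pre- and postemergence greenhouse applications, postemergence at 1- to 4-leaf stage, non-phytotoxic solvent with surfactant as carrier.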

[2] = system: soybean (Glycine max); experiment: Test C pre/postemergence; details: for plant injury at 62 g/ha / plant injury at 125 g/ha / plant injury at 250 g/ha / plant injury at 500 g/ha: Glycine max
Method in brief: as §1

[3] = system: yellow nutsedge (Cyperus esculentus); experiment: Test C pre/postemergence; details: for pest or weed control at 62 g/ha / pest or weed control at 125 g/ha / pest or weed control at 250 g/ha / pest or weed control at 500 g/ha: Cyperus
Method in brief: as §1

[4] = system: barnyardgrass (Echinochloa crus-galli); experiment: Test C flooded paddy test; details: Flood
Experimental: (§2) At the same time, plants selected from these crop and weed species and also winter barley (Hordeum vulgare), blackgrass (Alopecurus myosuroides), canarygrass (Phalaris minor), chickweed (Stellaria media), downy brome (Bromus tectorum), green foxtail (Setaria viridis), Italian ryegrass (Lolium multiflorum), wheat (Triticum aestivum), wild oat (Avena fatua) and windgrass (Apera spica-venti) were treated with postemergence applications of some of the test chemicals formulated in the same manner. Plants ranged in height from 2 to 18 cm (1- to 4-leaf stage) for postemergence treatments. Plant species in the flooded paddy test consisted of rice (Oryza sativa), umbrella sedge (Cyperus difformis), duck salad (Heteranthera limosa) and barnyardgrass (Echinochloa crus-galli) grown to the 2-leaf stage for testing. Treated plants and controls were maintained in a greenhouse for 12 to 14 days, after which time all species were compared to controls and visually evaluated. Plant response ratings, summarized in Table C, are based on a scale of 0 to 100 where 0 is no effect and 100 is complete control. A dash (-) response means no test result.

[5] = system: duck salad (Heteranthera limosa); experiment: Test C flooded paddy test; details: Flood, scale 0 to 100
Experimental: as §2

[6] = system: rice (Oryza sativa); experiment: Test C flooded paddy test; details: Flood, scale 0 to 100
Experimental: as §2

[7] = system: umbrella sedge (Cyperus difformis); experiment: Test C flooded paddy test; details: Flood, scale 0 to 100
Experimental: as §2

[8] = Postemergence, 62 g ai/ha, scale 0 to 100 (0 no effect, 100 complete control)
[9] = Postemergence, 125 g ai/ha, scale 0 to 100 (0 no effect, 100 complete control)
[10] = Postemergence, 250 g ai/ha, scale 0 to 100
[11] = Postemergence, 500 g ai/ha, scale 0 to 100
[12] = 500 g ai/ha, scale 0 to 100 (0 no effect, 100 complete control)
[13] = Preemergence, 31 g ai/ha, scale 0 to 100, 0 no effect, 100 complete control
[14] = Preemergence, 62 g ai/ha, scale 0 to 100, 0 no effect, 100 complete control
[15] = Preemergence, 125 g ai/ha, scale 0 to 100
[16] = Preemergence, 250 g ai/ha, scale 0 to 100

CCOC(=O)c1nc(-c2ccc(Cl)cc2)nc(N)c1Br [Compound 37]
Crabgrass plant response rating [1, 8]: 0
Crabgrass plant response rating [1, 9]: 15
Plant response rating, Crabgrass [1, 10]: 40
Plant response rating, Crabgrass [1, 11]: 60
Soybean plant response rating [2, 8]: 20
Soybean plant response rating [2, 9]: 85
Plant response rating, Soybean [2, 10]: 95
Plant response rating, Soybean [2, 11]: 100
Nutsedge, Yellow plant response rating [3, 8]: 0
Nutsedge, Yellow plant response rating [3, 9]: 0
Plant response rating, Nutsedge, Yellow [3, 10]: 0
Plant response rating, Nutsedge, Yellow [3, 11]: 20
Plant response rating, Barnyardgrass ([4]; 62 g ai/ha, scale 0 to 100): 0
Plant response rating, Barnyardgrass ([4]; 125 g ai/ha, scale 0 to 100): 0
Plant response rating, Barnyardgrass ([4]; 250 g ai/ha, scale 0 to 100): 0
Plant response rating, Barnyardgrass [4, 12]: 0
Plant response rating, Ducksalad ([5]; 62 g ai/ha): 95
Plant response rating, Ducksalad ([5]; 125 g ai/ha): 95
Plant response rating, Ducksalad ([5]; 250 g ai/ha): 100
Plant response rating, Ducksalad ([5]; 500 g ai/ha): 100
Plant response rating, Rice ([6]; 62 g ai/ha): 0
Plant response rating, Rice ([6]; 125 g ai/ha): 0
Plant response rating, Rice ([6]; 250 g ai/ha): 0
Plant response rating, Rice ([6]; 500 g ai/ha): 0
Plant response rating, Sedge, Umbrella ([7]; 62 g ai/ha): 85
Plant response rating, Sedge, Umbrella ([7]; 125 g ai/ha): 85
Plant response rating, Sedge, Umbrella ([7]; 250 g ai/ha): 90
Plant response rating, Sedge, Umbrella ([7]; 500 g ai/ha): 95

CNc1nc(C2CC2)nc(C(=O)OC)c1Br [Compound 5]
pest or weed control at 62 g/ha ([1]; post-emergence, Postemergence, 62 g ai/ha, scale 0 to 100 (0 no effect, 100 complete control), read-out: Crabgrass plant response rating): 40%
pest or weed control at 125 g/ha ([1]; post-emergence, Postemergence, 125 g ai/ha, scale 0 to 100 (0 no effect, 100 complete control), read-out: Crabgrass plant response rating): 50%
pest or weed control at 250 g/ha ([1]; post-emergence, Postemergence, 250 g ai/ha, scale 0 to 100, read-out: Plant response rating, Crabgrass): 70%
pest or weed control at 500 g/ha ([1]; post-emergence, Postemergence, 500 g ai/ha, scale 0 to 100, read-out: Plant response rating, Crabgrass): 80%
pest or weed control at 62 g/ha ([1]; pre-emergence, Preemergence, 62 g ai/ha, scale 0 to 100, 0 no effect, 100 complete control, read-out: Plant response rating, Crabgrass): 0%
pest or weed control at 125 g/ha ([1]; pre-emergence, Preemergence, 125 g ai/ha, scale 0 to 100, read-out: Plant response rating, Crabgrass): 0%
pest or weed control at 250 g/ha ([1]; pre-emergence, Preemergence, 250 g ai/ha, scale 0 to 100, read-out: Plant response rating, Crabgrass): 20%
pest or weed control at 500 g/ha ([1]; pre-emergence, Preemergence, 500 g ai/ha, scale 0 to 100, read-out: Plant response rating, Crabgrass): 60%
plant injury at 62 g/ha ([2]; post-emergence, Postemergence, 62 g ai/ha, scale 0 to 100 (0 no effect, 100 complete control), read-out: Soybean plant response rating): 95%
plant injury at 125 g/ha ([2]; post-emergence, Postemergence, 125 g ai/ha, scale 0 to 100 (0 no effect, 100 complete control), read-out: Soybean plant response rating): 100%
plant injury at 250 g/ha ([2]; post-emergence, Postemergence, 250 g ai/ha, scale 0 to 100, read-out: Plant response rating, Soybean): 100%
plant injury at 500 g/ha ([2]; post-emergence, Postemergence, 500 g ai/ha, scale 0 to 100, read-out: Plant response rating, Soybean): 100%
plant injury at 62 g/ha ([2]; pre-emergence, Preemergence, 62 g ai/ha, scale 0 to 100, 0 no effect, 100 complete control, read-out: Plant response rating, Soybean): 85%
plant injury at 125 g/ha ([2]; pre-emergence, Preemergence, 125 g ai/ha, scale 0 to 100, read-out: Plant response rating, Soybean): 90%
plant injury at 250 g/ha ([2]; pre-emergence, Preemergence, 250 g ai/ha, scale 0 to 100, read-out: Plant response rating, Soybean): 98%
plant injury at 500 g/ha ([2]; pre-emergence, Preemergence, 500 g ai/ha, scale 0 to 100, read-out: Plant response rating, Soybean): 100%
pest or weed control at 62 g/ha ([3]; post-emergence, Postemergence, 62 g ai/ha, scale 0 to 100 (0 no effect, 100 complete control), read-out: Nutsedge, Yellow plant response rating): 0%
pest or weed control at 125 g/ha ([3]; post-emergence, Postemergence, 125 g ai/ha, scale 0 to 100 (0 no effect, 100 complete control), read-out: Nutsedge, Yellow plant response rating): 0%
pest or weed control at 250 g/ha ([3]; post-emergence, Postemergence, 250 g ai/ha, scale 0 to 100, read-out: Plant response rating, Nutsedge, Yellow): 0%
pest or weed control at 500 g/ha ([3]; post-emergence, Postemergence, 500 g ai/ha, scale 0 to 100, read-out: Plant response rating, Nutsedge, Yellow): 0%
pest or weed control at 62 g/ha ([3]; pre-emergence, Preemergence, 62 g ai/ha, scale 0 to 100, 0 no effect, 100 complete control, read-out: Plant response rating, Nutsedge, Yellow): 0%
pest or weed control at 125 g/ha ([3]; pre-emergence, Preemergence, 125 g ai/ha, scale 0 to 100, read-out: Plant response rating, Nutsedge, Yellow): 0%
pest or weed control at 250 g/ha ([3]; pre-emergence, Preemergence, 250 g ai/ha, scale 0 to 100, read-out: Plant response rating, Nutsedge, Yellow): 0%
pest or weed control at 500 g/ha ([3]; pre-emergence, Preemergence, 500 g ai/ha, scale 0 to 100, read-out: Plant response rating, Nutsedge, Yellow): 0%
Plant response rating, Barnyardgrass ([4]; 62 g ai/ha, scale 0 to 100): 0
Plant response rating, Barnyardgrass ([4]; 125 g ai/ha, scale 0 to 100): 0
Plant response rating, Barnyardgrass ([4]; 250 g ai/ha, scale 0 to 100): 0
Plant response rating, Barnyardgrass [4, 12]: 20
Plant response rating, Ducksalad ([5]; 62 g ai/ha): 0
Plant response rating, Ducksalad ([5]; 125 g ai/ha): 0
Plant response rating, Ducksalad ([5]; 250 g ai/ha): 0
Plant response rating, Ducksalad ([5]; 500 g ai/ha): 0
Plant response rating, Rice ([6]; 62 g ai/ha): 0
Plant response rating, Rice ([6]; 125 g ai/ha): 0
Plant response rating, Rice ([6]; 250 g ai/ha): 0
Plant response rating, Rice ([6]; 500 g ai/ha): 0
Plant response rating, Sedge, Umbrella ([7]; 62 g ai/ha): 0
Plant response rating, Sedge, Umbrella ([7]; 125 g ai/ha): 0
Plant response rating, Sedge, Umbrella ([7]; 250 g ai/ha): 0
Plant response rating, Sedge, Umbrella ([7]; 500 g ai/ha): 0

CC(C)COC(=O)c1nc(C2CC2)nc(N)c1Br [Compound 17]
Plant response rating (scale of 0 to 100), Crabgrass ([1]; Postemergence, 31 g ai/ha): 0
Crabgrass plant response rating [1, 8]: 0
Crabgrass plant response rating [1, 9]: 20
Plant response rating, Crabgrass [1, 10]: 65
Plant response rating, Crabgrass [1, 13]: 0
Plant response rating, Crabgrass [1, 14]: 0
Plant response rating, Crabgrass [1, 15]: 20
Plant response rating, Crabgrass [1, 16]: 80
Plant response rating (scale of 0 to 100), Soybean ([2]; Postemergence, 31 g ai/ha): 85
Soybean plant response rating [2, 8]: 95
Soybean plant response rating [2, 9]: 100
Plant response rating, Soybean [2, 10]: 100
Plant response rating, Soybean [2, 13]: 70
Plant response rating, Soybean [2, 14]: 90
Plant response rating, Soybean [2, 15]: 95
Plant response rating, Soybean [2, 16]: 100
Plant response rating (scale of 0 to 100), Nutsedge, Yellow ([3]; Postemergence, 31 g ai/ha): 0
Nutsedge, Yellow plant response rating [3, 8]: 0
Nutsedge, Yellow plant response rating [3, 9]: 0
Plant response rating, Nutsedge, Yellow [3, 10]: 0
Plant response rating, Nutsedge, Yellow [3, 13]: 0
Plant response rating, Nutsedge, Yellow [3, 14]: 0
Plant response rating, Nutsedge, Yellow [3, 15]: 0
Plant response rating, Nutsedge, Yellow [3, 16]: 0
Plant response rating, Barnyardgrass ([4]; 62 g ai/ha, scale 0 to 100): 0
Plant response rating, Barnyardgrass ([4]; 125 g ai/ha, scale 0 to 100): 0
Plant response rating, Barnyardgrass ([4]; 250 g ai/ha, scale 0 to 100): 0
Plant response rating, Barnyardgrass [4, 12]: 50
Plant response rating, Ducksalad ([5]; 62 g ai/ha): 0
Plant response rating, Ducksalad ([5]; 125 g ai/ha): 0
Plant response rating, Ducksalad ([5]; 250 g ai/ha): 80
Plant response rating, Ducksalad ([5]; 500 g ai/ha): 80
Plant response rating, Rice ([6]; 62 g ai/ha): 0
Plant response rating, Rice ([6]; 125 g ai/ha): 0
Plant response rating, Rice ([6]; 250 g ai/ha): 45
Plant response rating, Rice ([6]; 500 g ai/ha): 75
Plant response rating, Sedge, Umbrella ([7]; 62 g ai/ha): 0
Plant response rating, Sedge, Umbrella ([7]; 125 g ai/ha): 0
Plant response rating, Sedge, Umbrella ([7]; 250 g ai/ha): 20
Plant response rating, Sedge, Umbrella ([7]; 500 g ai/ha): 25
